Data from ChEMBL document CHEMBL1201862, “PubChem BioAssay data set” (2004).
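These data come from cells grown in 96-well plates and exposed to compound for 48 hours at five concentrations. GI50 is the concentration that inhibits growth by half.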 Activity calls are given as the source filed them. Rule as the data show it: active = GI50 up to about 1.1 µM and inactive = higher.

Assays:
Assay in all cases: DTP human tumour cell line panel, 48 h
[1] = tested on: HOP-62
[2] = tested on: UACC-257
[3] = tested on: NCI-H226
[4] = tested on: SK-MEL-5
[5] = tested on: HCC 2998
[6] = tested on: BT-549
[7] = tested on: SNB-75
[8] = tested on: Hs-578T
[9] = tested on: T47D
[10] = tested on: RXF 393
[11] = tested on: NCI-H23
[12] = tested on: DU-145
[13] = tested on: SF-295
[14] = tested on: MDA-MB-435
[15] = tested on: HL-60
[16] = tested on: SF-268
[17] = tested on: HCT-15
[18] = tested on: SK-MEL-28
[19] = tested on: HT-29
[20] = tested on: M14
[21] = tested on: HCT-116
[22] = tested on: KM12
[23] = tested on: ACHN
[24] = tested on: 786-0
[25] = tested on: NCI-H522
[26] = tested on: EKVX
[27] = tested on: SK-OV-3
[28] = tested on: MDA-MB-231
[29] = tested on: RPMI-8226
[30] = tested on: A549
[31] = tested on: K562
[32] = tested on: OVCAR-3
[33] = tested on: NCI-H460
[34] = tested on: SF-539
[35] = tested on: UACC-62
[36] = tested on: SN12C
[37] = tested on: SW-620
[38] = tested on: TK-10
[39] = tested on: MDA-N
[40] = tested on: PC-3
[41] = tested on: OVCAR-4
[42] = tested on: COLO 205
[43] = tested on: UO-31
[44] = tested on: SR
[45] = tested on: CCRF-CEM
[46] = tested on: SNB-19
[47] = tested on: CAKI-1
[48] = tested on: OVCAR-8
[49] = tested on: MCF7
[50] = tested on: MOLT-4
[51] = tested on: HOP-92
[52] = tested on: U-251
[53] = tested on: NCI/ADR-RES
[54] = tested on: LOX IMVI
[55] = tested on: SK-MEL-2
[56] = tested on: A498
[57] = tested on: OVCAR-5
[58] = tested on: Malme-3M
[59] = tested on: IGROV-1

`N#Cc1ccc(/C=C2\Cc3ccccc3C2=O)cc1` was tested, and the GI50 [1] was > 100 µM (inactive), the GI50 [2] was 75.2 µM (inactive) and the GI50 [3] was 56.9 µM (inactive). For the same molecule, the GI50 [4] was > 100 µM (inactive), the GI50 [5] was > 100 µM (inactive) and the GI50 [6] was > 100 µM (inactive). For the same molecule, the GI50 [7] was > 100 µM (inactive), the GI50 [8] was 51.2 µM (inactive) and the GI50 [9] was 36.3 µM (inactive). The GI50 [10] was > 100 µM (inactive), the GI50 [11] was > 100 µM (inactive) and the GI50 [12] was > 100 µM (inactive). For the same molecule, the GI50 [13] was > 100 µM (inactive), the GI50 [14] was > 100 µM (inactive) and the GI50 [15] was 67.6 µM (inactive). For the same molecule, the GI50 [16] was > 100 µM (inactive), the GI50 [17] was > 100 µM and the GI50 [18] was > 100 µM (inactive). For the same molecule, the GI50 [19] was > 100 µM (inactive), the GI50 [20] was > 100 µM (inactive) and the GI50 [21] was > 100 µM (inactive). The GI50 [22] was > 100 µM (inactive), the GI50 [23] was > 100 µM (inactive) and the GI50 [24] was > 100 µM (inactive). The GI50 [25] was 14.3 µM (inactive), the GI50 [26] was 46.8 µM (inactive) and the GI50 [27] was > 100 µM (inactive). For the same molecule, the GI50 [28] was > 100 µM (inactive), the GI50 [29] was > 100 µM (inactive) and the GI50 [30] was > 100 µM (inactive). The GI50 [31] was > 100 µM (inactive), the GI50 [32] was > 100 µM (inactive) and the GI50 [33] was > 100 µM (inactive). The GI50 [34] was > 100 µM (inactive), the GI50 [35] was > 100 µM (inactive) and the GI50 [36] was > 100 µM (inactive). The GI50 [37] was > 100 µM (inactive), the GI50 [38] was > 100 µM (inactive) and the GI50 [39] was > 100 µM (inactive). For the same molecule, the GI50 [40] was > 100 µM (inactive), the GI50 [41] was > 100 µM (inactive) and the GI50 [42] was > 100 µM (inactive). For the same molecule, the GI50 [43] was 43.4 µM (inactive), the GI50 [44] was > 100 µM (inactive) and the GI50 [45] was > 100 µM (inactive). The GI50 [46] was > 100 µM (inactive), the GI50 [47] was 26.2 µM (inactive) and the GI50 [48] was > 100 µM (inactive). The GI50 [49] was > 100 µM (inactive) and the GI50 [50] was > 100 µM (inactive).
In the case of `O=c1[nH]c2cc3[nH]c4ncccc4c(=O)c3cc2[nH]1`, the GI50 [51] is reported as > 10 µM (inactive), the GI50 [1] is reported as > 10 µM (inactive) and the GI50 [2] is reported as > 10 µM (inactive). For the same molecule, the GI50 [3] was > 10 µM (inactive), the GI50 [4] was > 10 µM (inactive) and the GI50 [5] was > 10 µM (inactive). For the same molecule, the GI50 [6] was > 10 µM (inactive), the GI50 [7] was > 10 µM (inactive) and the GI50 [52] was > 10 µM (inactive). For the same molecule, the GI50 [8] was > 10 µM (inactive), the GI50 [9] was > 10 µM (inactive) and the GI50 [10] was > 10 µM (inactive). For the same molecule, the GI50 [11] was > 10 µM (inactive), the GI50 [12] was > 10 µM (inactive) and the GI50 [13] was > 10 µM (inactive). For the same molecule, the GI50 [14] was > 10 µM (inactive), the GI50 [15] was > 10 µM (inactive) and the GI50 [16] was > 10 µM (inactive). The GI50 [53] was > 10 µM (inactive), the GI50 [17] was > 10 µM and the GI50 [18] was > 10 µM (inactive). For the same molecule, the GI50 [54] was > 10 µM (inactive), the GI50 [19] was > 10 µM (inactive) and the GI50 [20] was > 10 µM (inactive). For the same molecule, the GI50 [21] was > 10 µM (inactive), the GI50 [22] was > 10 µM (inactive) and the GI50 [23] was > 10 µM (inactive). The GI50 [24] was > 10 µM (inactive), the GI50 [25] was > 10 µM (inactive) and the GI50 [26] was > 10 µM (inactive). For the same molecule, the GI50 [55] was > 10 µM (inactive), the GI50 [27] was > 10 µM (inactive) and the GI50 [56] was > 10 µM (inactive). For the same molecule, the GI50 [57] was > 10 µM (inactive), the GI50 [28] was > 10 µM (inactive) and the GI50 [29] was > 10 µM (inactive). The GI50 [30] was > 10 µM (inactive), the GI50 [32] was > 10 µM (inactive) and the GI50 [58] was > 10 µM (inactive). For the same molecule, the GI50 [33] was > 10 µM (inactive), the GI50 [34] was > 10 µM (inactive) and the GI50 [35] was > 10 µM (inactive). For the same molecule, the GI50 [36] was > 10 µM (inactive), the GI50 [37] was > 10 µM (inactive) and the GI50 [38] was > 10 µM (inactive). The GI50 [59] was > 10 µM (inactive), the GI50 [39] was > 10 µM (inactive) and the GI50 [40] was > 10 µM (inactive). The GI50 [41] was > 10 µM (inactive), the GI50 [42] was > 10 µM (inactive) and the GI50 [44] was > 10 µM (inactive). For the same molecule, the GI50 [45] was > 10 µM (inactive), the GI50 [46] was > 10 µM (inactive) and the GI50 [47] was > 10 µM (inactive). For the same molecule, the GI50 [48] was > 10 µM (inactive) and the GI50 [50] was > 10 µM (inactive).
In the case of `O=[N+]([O-])c1ccc2c(c1)C(N1CCN(CCO)CC1)Cc1ccc(F)cc1S2` (centres undefined), the GI50 [1] is reported as 17.1 µM (inactive), the GI50 [2] is reported as 2.57 µM (inactive) and the GI50 [3] is reported as 9.1 µM (inactive). For the same molecule, the GI50 [4] was 1.8 µM (inactive), the GI50 [5] was 2.58 µM (inactive) and the GI50 [6] was 10.8 µM (inactive). The GI50 [7] was 2.05 µM (inactive), the GI50 [52] was 10.1 µM (inactive) and the GI50 [8] was 6.75 µM (inactive). For the same molecule, the GI50 [9] was 17.4 µM (inactive), the GI50 [10] was < 0.01 µM (active) and the GI50 [11] was 13.5 µM (inactive). The GI50 [12] was 14.8 µM (inactive), the GI50 [13] was 4.14 µM (inactive) and the GI50 [15] was 5.02 µM (inactive). For the same molecule, the GI50 [16] was 13.5 µM (inactive), the GI50 [53] was 10.3 µM (inactive) and the GI50 [17] was 5.93 µM. For the same molecule, the GI50 [18] was 1.96 µM (inactive), the GI50 [19] was 2.49 µM (inactive) and the GI50 [20] was 3.15 µM (inactive). The GI50 [21] was 5 µM (inactive), the GI50 [22] was 6.64 µM (inactive) and the GI50 [23] was 4.44 µM (inactive). For the same molecule, the GI50 [24] was 12 µM (inactive), the GI50 [25] was 3.48 µM (inactive) and the GI50 [26] was 11.2 µM (inactive). The GI50 [27] was 17.3 µM (inactive), the GI50 [56] was 11.6 µM (inactive) and the GI50 [57] was 13.4 µM (inactive). For the same molecule, the GI50 [28] was 12.9 µM (inactive), the GI50 [30] was 12.1 µM (inactive) and the GI50 [31] was 2.29 µM (inactive). For the same molecule, the GI50 [32] was 16.4 µM (inactive), the GI50 [33] was 8.61 µM (inactive) and the GI50 [34] was 6.22 µM (inactive). The GI50 [35] was 2.49 µM (inactive), the GI50 [36] was 11.5 µM (inactive) and the GI50 [37] was 4.95 µM (inactive). For the same molecule, the GI50 [38] was 13.7 µM (inactive), the GI50 [59] was 3.85 µM (inactive) and the GI50 [39] was 11 µM (inactive). The GI50 [40] was 2.65 µM (inactive), the GI50 [41] was 12.4 µM (inactive) and the GI50 [42] was 5.48 µM (inactive). The GI50 [43] was 4.39 µM (inactive), the GI50 [44] was 4.04 µM (inactive) and the GI50 [45] was 3.18 µM (inactive). For the same molecule, the GI50 [46] was 10.7 µM (inactive), the GI50 [47] was 13.1 µM (inactive) and the GI50 [48] was 11.3 µM (inactive). The GI50 [49] was 10.1 µM (inactive) and the GI50 [50] was 1.04 µM (active).
